In article PMC4147592 (2014):
One block for each molecule: values may come before it.

How the values were obtained:
[1] = tested on: A08 (DNA, aptamer) AGCCTCGTCTGTTCTCCCGGCAGTGTGGGCGAATCTATGCGTACCGTTCGATATCGTGGGGAAGACAAGCAGACGT; test: SYBR Green I displacement fluorescence; details: 137 mM NaCl, 2.7 mM KCl, 10 mM Na2HPO4, 2 mM KH2PO4, pH 7.4, tracer SYBR Green I
[2] = tested on: B08 (DNA, aptamer) AGCCTCGTCTGTTCTCCCGGCGCATGATCATTCGGTGGGTAAGGTGGTGGTAACGTTGGGGAAGACAAGCAGACGT; test: SYBR Green I displacement fluorescence; details: 137 mM NaCl, 2.7 mM KCl, 10 mM Na2HPO4, 2 mM KH2PO4, pH 7.4, tracer SYBR Green I
[3] = tested on: A08 minimer (DNA, aptamer) GGCAGTGTGGGCGAATCTATGCGTACCGTTCGATATCGTG; test: SYBR Green I displacement fluorescence; details: 137 mM NaCl, 2.7 mM KCl, 10 mM Na2HPO4, 2 mM KH2PO4, pH 7.4, tracer SYBR Green I
[4] = tested on: A08 (DNA, aptamer) AGCCTCGTCTGTTCTCCCGGCAGTGTGGGCGAATCTATGCGTACCGTTCGATATCGTGGGGAAGACAAGCAGACGT; test: fluorescence enhancement at 520 nm; details: 137 mM NaCl, 2.7 mM KCl; 10 mM Na2HPO4, 2 mM KH2PO4, pH 7.4; excitation 497 nm
[5] = tested on: B08 (DNA, aptamer) AGCCTCGTCTGTTCTCCCGGCGCATGATCATTCGGTGGGTAAGGTGGTGGTAACGTTGGGGAAGACAAGCAGACGT; test: fluorescence enhancement at 520 nm; details: 137 mM NaCl, 2.7 mM KCl; 10 mM Na2HPO4, 2 mM KH2PO4, pH 7.4; excitation 497 nm
[6] = tested on: A08 minimer (DNA, aptamer) GGCAGTGTGGGCGAATCTATGCGTACCGTTCGATATCGTG; test: fluorescence enhancement at 520 nm; details: 137 mM NaCl, 2.7 mM KCl; 10 mM Na2HPO4, 2 mM KH2PO4, pH 7.4; excitation 497 nm
[7] = tested on: Non-specific control (DNA, single strand) AGCACGTTGGTAGGTCGGTTTGGGTTTCGTGC; test: fluorescence enhancement at 520 nm; details: 137 mM NaCl, 2.7 mM KCl; 10 mM Na2HPO4, 2 mM KH2PO4, pH 7.4; excitation 497 nm
[8] = tested on: Non-specific control (DNA, single strand) AGCACGTTGGTAGGTCGGTTTGGGTTTCGTGC; test: SYBR Green I displacement fluorescence; details: 137 mM NaCl, 2.7 mM KCl; 10 mM Na2HPO4, 2 mM KH2PO4, pH 7.4; tracer SYBR Green I; highest OTA about 0.18 µM
[9] = tested on: 1.12.2 (DNA, aptamer) GATCGGGTGTGGGTGGCGTAAAGGGAGCATCGGACA; test: magnetic beads isocratic elution, fluorescence; details: 137 mM NaCl, 2.7 mM KCl; immobilised compound (amine Dynabeads, EDC); 10 mM Na2HPO4, 2 mM KH2PO4, pH 7.4; apparent
[10] = tested on: A08 (DNA, aptamer) AGCCTCGTCTGTTCTCCCGGCAGTGTGGGCGAATCTATGCGTACCGTTCGATATCGTGGGGAAGACAAGCAGACGT; test: magnetic beads isocratic elution, fluorescence; details: 137 mM NaCl, 2.7 mM KCl; immobilised compound (amine Dynabeads, EDC); 10 mM Na2HPO4, 2 mM KH2PO4, pH 7.4; apparent
[11] = tested on: B08 (DNA, aptamer) AGCCTCGTCTGTTCTCCCGGCGCATGATCATTCGGTGGGTAAGGTGGTGGTAACGTTGGGGAAGACAAGCAGACGT; test: magnetic beads isocratic elution, fluorescence; details: 137 mM NaCl, 2.7 mM KCl; immobilised compound (amine Dynabeads, EDC); 10 mM Na2HPO4, 2 mM KH2PO4, pH 7.4; apparent
[12] = compared at 30 and 100 nM, highest about 0.18 µM

binding [1, 12]: no | binding ([2]; OTA signal 2–3 fold larger): weak | binding [3, 12]: no
SMILES: CC(=O)CC(c1ccccc1)c1c(O)c2ccccc2oc1=O (stereo not shown)

binding [4]: yes | binding [5]: yes | binding [6]: yes | binding [7]: yes
SMILES: CCCN(CCCN(C)C)c1cc(C=C2Sc3ccccc3N2C)c2ccccc2[n+]1-c1ccccc1

SMILES: C[C@@H]1Cc2c(Cl)cc(C(=O)N[C@@H](Cc3ccccc3)C(=O)O)c(O)c2C(=O)O1
binding [2]: yes | binding ([3]; linear signal to 100 nM OTA): yes | binding [8]: no | KD [9]: 370 ± 250 nM | KD [10]: 290 ± 150 nM | KD [11]: 110 ± 50 nM

binding ([1]; OTA signal 6–10 fold larger): weak | binding ([2]; OTA signal 2–3 fold larger): weak | binding ([3]; OTA signal 6–10 fold larger): weak
SMILES: C[C@@H]1Cc2ccc(C(=O)N[C@@H](Cc3ccccc3)C(=O)O)c(O)c2C(=O)O1
